In PMC7749516, “Safety and nonclinical and clinical pharmacokinetics of PC945, a novel inhaled triazole antifungal agent” (Pharmacology Research & Perspectives, 2020):
Values after ≈ are worked out from the molar mass of the structure shown. Values joined by “and” are separate entries in the source; they are usually repeats but may differ in a detail not shown here. Equal entries are not always repeated.

Assays:
[1] = test system: CYP1A2, 2B6, 2C8, 2C9, 2C19, 2D6; test: CYP inhibition in pooled human liver microsomes, other isoforms; assay type: in vitro ADME
Experimental: PC945 and posaconazole (Sigma‐Aldrich, UK) were added to the pooled human liver microsomal samples (Pharmaron Rushden, UK) at concentrations of 0, 0.03, 0.1, 0.3, 1, 3, and 5 μmol/L. The mixtures were preincubated at 37°C for 0 or 30 minutes before the addition of selective CYP substrates. Microsomal reactions were terminated by adding 100 μL of cold (4°C) methanol containing appropriate internal standard. Aliquots (150 μL) of each sample were centrifuged and the supernatant was used for substrate analysis by ultra‐performance liquid chromatography with tandem mass spectrometry (UPLC‐MS/MS) on the day of incubations.
Change in substrate concentration was measured to determine the extent of CYP‐isoform inhibition. The 30‐minute preincubations were performed to determine whether there was time‐dependent inhibition of any CYP isoform (CYP1A2, 2B6, 2C8, 2C9, 2C19, 2D6, and 3A4/5). Untreated control contained only solvent, dimethyl sulfoxide (≤0.5% [v/v]). Positive control contained a chemical inhibitor selective for each CYP enzyme in the […].

CYP3A4/5 = test: CYP inhibition in pooled human liver microsomes; assay type: in vitro ADME
[2] = In vitro plasma protein binding; assay type: in vitro ADME; conditions: 0.1‐50 µmol/L
Experimental: Plasma protein binding of PC945 was determined by […] in pooled plasma samples from human, dog, rat, and mouse. PC945 was tested at 0.1, 1, 5, 25, and 50 µmol/L in plasma for each species. PC945‐containing plasma samples were centrifuged at 238 859 g for 20 hours at 37°C. Supernatant was removed and diluted. The concentration of unbound PC945 was determined using LC‐MS/MS, from which the extent of protein binding was calculated.

[3] = Rat lung tissue concentration after 14 days of inhaled dosing; assay type: in vivo, rats (Han Wistar); conditions: for Lung concentration: lungs ~22 hours after final dose (Day 15)
Experimental: Portions of rat lung tissue were homogenized in methanol:water (50:50; 15 mL for 1 g tissue). PC945 concentrations in tissue homogenates were analyzed using LC‐MS/MS. A control rat lung sample (B&K Universal Ltd, Hull, UK) was used as standards and quality control.

[4] = Clinical pharmacokinetics, single inhaled dose in subjects with mild asthma (Cohort 3); assay type: in vivo, human; conditions: single inhaled 5 mg
Description: Part one consisted of a single dose escalation study (Cohort 1) and a repeat dose study (Cohort 2) of inhaled PC945 in healthy subjects. Part two comprised a single dose study of inhaled PC945 in subjects with mild asthma (Cohort 3). The doses selected were predicted to achieve target lung concentrations above the IC90/MIC90 for A. fumigatus (based on data from a range of in vitro and in vivo systems) throughout a 24‐hour period and with a suitable safety margin based on animal toxicology data.
In Cohort 3, nine subjects with mild asthma (six males and three females; mean age: 37.7 years, mean weight: 82.70 kg, mean BMI: 26.48 kg/m^2) received a single dose of PC945 5 mg or placebo (PC945:placebo = 2:1).
Serial blood samples were collected to determine plasma PC945 concentrations. For the single dose study in healthy subjects and in subjects with mild asthma, blood samples were collected predose and at 0.25, 0.5, 1, 2, 4, 6, 8, 24, 30, and 48 hours postend of inhalation and at the follow‐up visit. For the repeat dose study, blood samples were collected (a) predose and at 0.25, 0.5, 1, 2, 4, 6, 8, 10, 12, and 24 hours postend of inhalation on Days 1 and 7, and 30 and 48 hours on Day 7; (b) predose on Days 5 and 6; (c) at the follow‐up visit.

A. fumigatus infection = test system: A. fumigatus infection; set-up: method as in PMID 31263150; conditions: in vitro human alveolus bilayer model; cited from earlier work
A. fumigatus strains = test system: A. fumigatus strains; set-up: method as in PMID 28223388; conditions: EUCAST method, 96 clinically isolated A. fumigatus strains; cited from earlier work
[5] = Toxicokinetics/toxicity in dogs, daily 2-hour inhalation for 14 days (plasma); conditions: for Ro (accumulation ratio): AUC0‐24h (Day14)/AUC0‐24h (Day 1)
Description: Each dose was inhaled over a 2‐hour period once daily for 14 days.
Lower limit of quantification of the assay was 10 pg/mL for clinical samples and 100 pg/mL for rat and dog plasma samples.

[6] = substrate midazolam, 30‐minute preincubation
[7] = female dogs, Day 14 of inhaled 1.7 mg/kg/day, mean
[8] = female dogs, Day 14 of inhaled 5.3 mg/kg/day, mean
[9] = female dogs, Day 14 of inhaled 18.1 mg/kg/day, mean
[10] = female dogs, single inhaled dose 1.7 mg/kg, mean ± SD
[11] = female dogs, single inhaled dose 5.3 mg/kg, mean ± SD
[12] = female dogs, single inhaled dose 18.1 mg/kg, mean ± SD
[13] = male dogs, Day 14 of inhaled 1.7 mg/kg/day, mean
[14] = male dogs, Day 14 of inhaled 5.3 mg/kg/day, mean
[15] = male dogs, Day 14 of inhaled 18.1 mg/kg/day, mean
[16] = male dogs, single inhaled dose 1.7 mg/kg, mean ± SD
[17] = male dogs, single inhaled dose 5.3 mg/kg, mean ± SD
[18] = male dogs, single inhaled dose 18.1 mg/kg, mean ± SD

Question: With `Cc1cc(N2CCN(c3ccc(C(=O)Nc4ccc(F)cc4)cc3)CC2)ccc1OC[C@@H]1CO[C@@](Cn2cncn2)(c2ccc(F)cc2F)C1` [PC945] as the molecule, how does the “Time‐dependent effect on other CYP isoforms” value ([1]; 30‐minute preincubation) read?
Answer: no time‐dependent effect

Question: And the “Cytochrome P450 inhibitory interaction, isoforms other than CYP3A4/5” value ([1]; up to 5 μmol/L)?
Answer: only cytochrome P450 inhibitory interaction observed for PC945 was that on CYP3A4/5 substrates

Question: And the “Shift in potency for CYP3A4/5 following preincubation” value (CYP3A4/5)?
Answer: fivefold

Question: And the “IC50, CYP3A4/5” value (CYP3A4/5; microsomes)?
Answer: 0.168 µg/mL (≈ 0.246 µM)

Question: And the IC50 (CYP3A4/5; [6])?
Answer: 17 nM

Question: What about the “IC50, CYP3A4/5” value (CYP3A4/5; [6]) of the same molecule?
Answer: 0.0116 µg/mL (≈ 0.017 µM)

Question: What about the IC50 (CYP3A4/5; substrate midazolam, without preincubation, pooled human liver microsomes) of the same molecule?
Answer: 85 nM

Question: And the “Mean percentage protein bound” value ([2]; dog plasma)?
Answer: 91% and 91.1%

Question: What about the “Mean percentage protein bound” value ([2]; human plasma) of the same molecule?
Answer: 96.6%

Question: And the “Mean percentage protein bound” value ([2]; mouse plasma)?
Answer: 96.2%

Question: And the “Mean percentage protein bound” value ([2]; rat plasma)?
Answer: 97.8%

Question: What about the “Ratio lung tissue concentration (Day 15)/plasma C max (Day 14)” value (“Ratio lung tissue concentration” below) ([3]; female rats, 2.0 mg/kg/day) of the same molecule?
Answer: 2610

Question: What about the Lung concentration ([3]; female rats, 2.0 mg/kg/day for 14 days) of the same molecule?
Answer: 50 100 ng/mL

Question: And the “Ratio lung tissue concentration” value ([3]; female rats, 7.1 mg/kg/day)?
Answer: 2740

Question: And the Lung concentration ([3]; female rats, 7.1 mg/kg/day for 14 days)?
Answer: 138 000 ng/mL

Question: And the “Ratio lung tissue concentration” value ([3]; female rats, 16.6 mg/kg/day)?
Answer: 2340

Question: And the Lung concentration ([3]; female rats, 16.6 mg/kg/day for 14 days)?
Answer: 216 000 ng/mL

Question: And the “Mean lung:plasma ratio” value ([3]; male rats)?
Answer: ~ 4300 fold

Question: What about the “Ratio lung tissue concentration” value ([3]; male rats, 2.0 mg/kg/day) of the same molecule?
Answer: 3450

Question: And the Lung concentration ([3]; male rats, 2.0 mg/kg/day for 14 days)?
Answer: 42 400 ng/mL

Question: And the “Ratio lung tissue concentration” value ([3]; male rats, 7.1 mg/kg/day)?
Answer: 5020

Question: And the Lung concentration ([3]; male rats, 7.1 mg/kg/day for 14 days)?
Answer: 119 000 ng/mL

Question: And the “Ratio lung tissue concentration” value ([3]; male rats, 16.6 mg/kg/day)?
Answer: 4280

Question: And the Lung concentration ([3]; male rats, 16.6 mg/kg/day for 14 days)?
Answer: 329 000 ng/mL

Question: And the “Lung concentration relative to plasma” value ([3]; rats, all dose levels, after 14‐day inhaled dosing)?
Answer: > 2000 fold

Question: What about the “AUC0–24h” value [4] of the same molecule?
Answer: 4.95 ng·h/mL

Question: And the median t max [4]?
Answer: 4 h

Question: What about the C max ([4]; geometric mean) of the same molecule?
Answer: 0.335 ng/mL

Question: And the “Effect on A. fumigatus infection” value (A. fumigatus infection)?
Answer: inhibit A. fumigatus infection

Question: And the “Geometric mean minimum inhibitory concentration (MIC)” value (A. fumigatus strains)?
Answer: 0.17 µg/mL

Question: And the MIC50 (A. fumigatus strains)?
Answer: 0.125 µg/mL (≈ 0.183 µM)

Question: What about the MIC90 (A. fumigatus strains) of the same molecule?
Answer: 1.0 µg/mL and 1 µg/mL

Question: And the “Margin over the clinical AUC following a 5 mg dose” value ([5]; dog, highest dose tested)?
Answer: threefold

Question: And the “Time of C max after a single dose” value ([5]; dogs, after the 2‐hour dosing period)?
Answer: immediately

Question: And the Systemic toxicity ([5]; dogs, highest dose tested)?
Answer: No systemic toxicity

Question: What about the “Ro (accumulation ratio)” value ([5]; female dogs, 1.7 mg/kg/day) of the same molecule?
Answer: 2.27

Question: And the “Ro (accumulation ratio)” value ([5]; female dogs, 5.3 mg/kg/day)?
Answer: 1.88

Question: What about the “Ro (accumulation ratio)” value ([5]; female dogs, 18.1 mg/kg/day) of the same molecule?
Answer: 1.26

Question: And the “AUC0‐24h” value [5, 7]?
Answer: 27.7 ng·h/mL

Question: What about the C max [5, 7] of the same molecule?
Answer: 2.3 ng/mL

Question: And the “AUC0‐24h” value [5, 8]?
Answer: 73.3 ng·h/mL

Question: And the C max [5, 8]?
Answer: 5.5 ng/mL

Question: And the “AUC0‐24h” value [5, 9]?
Answer: 114 ng·h/mL

Question: And the C max [5, 9]?
Answer: 7.8 ng/mL

Question: What about the “AUC0‐24h” value [5, 10] of the same molecule?
Answer: 12.2 ± 2.9 ng·h/mL

Question: And the C max [5, 10]?
Answer: 1.5 ± 0.5 ng/mL

Question: And the “AUC0‐24h” value [5, 11]?
Answer: 39.0 ± 2.7 ng·h/mL

Question: And the C max [5, 11]?
Answer: 4.3 ± 0.7 ng/mL

Question: And the “AUC0‐24h” value [5, 12]?
Answer: 90.6 ± 6.7 ng·h/mL

Question: And the C max [5, 12]?
Answer: 10.2 ± 1.3 ng/mL

Question: And the “Ro (accumulation ratio)” value ([5]; male dogs, 1.7 mg/kg/day)?
Answer: 2.06

Question: And the “Ro (accumulation ratio)” value ([5]; male dogs, 5.3 mg/kg/day)?
Answer: 1.84

Question: And the “Ro (accumulation ratio)” value ([5]; male dogs, 18.1 mg/kg/day)?
Answer: 2.29

Question: What about the “AUC0‐24h” value [5, 13] of the same molecule?
Answer: 35.5 ng·h/mL

Question: What about the C max [5, 13] of the same molecule?
Answer: 2.8 ng/mL

Question: And the “AUC0‐24h” value [5, 14]?
Answer: 70.9 ng·h/mL

Question: What about the C max [5, 14] of the same molecule?
Answer: 5.6 ng/mL

Question: What about the “AUC0‐24h” value [5, 15] of the same molecule?
Answer: 203 ng·h/mL

Question: And the C max [5, 15]?
Answer: 13.5 ng/mL

Question: What about the “AUC0‐24h” value [5, 16] of the same molecule?
Answer: 17.2 ± 3.5 ng·h/mL

Question: What about the C max [5, 16] of the same molecule?
Answer: 2.2 ± 0.3 ng/mL

Question: What about the “AUC0‐24h” value [5, 17] of the same molecule?
Answer: 38.5 ± 1.8 ng·h/mL

Question: What about the C max [5, 17] of the same molecule?
Answer: 4.6 ± 0.4 ng/mL

Question: And the “AUC0‐24h” value [5, 18]?
Answer: 88.5 ± 25.8 ng·h/mL

Question: And the C max [5, 18]?
Answer: 9.7 ± 2.4 ng/mL
